Measurements: patent US12616203B2, “Use of 3-isoxazolidinones compounds as selective herbicides” (FMC Corporation, priority 2014, dated 2026)
Entries after “also recorded” stand apart in the source; their conditions may differ.

Tests used:
weeds; Sugarcane (CTC20) = assay: Ex23 PRE greenhouse; settings: 28 DAT, weed and rate in the words
Morningglory sp. = assay: Ex38 PRE 2,4-DC + pyroxasulfone, % control 28 DAT, Colby; format: in vivo, Ipomea spp
Source text: Pyroxasulfone plus fluthiacet-methyl (ANTHEM™, 23.3%) applied at 165 g ai/ha was included as a standard for comparison. […] Thereafter flats were watered and fertilized routinely.

Wild oat = assay: Ex12 PRE 2,4-DC + dimethenamid-P, % control 28 DAT, Colby; format: in vivo, Avena fatua
Experimental: The tested weeds include: wild buckwheat (Polygonum convolvulus, POLCO), velvetleaf (Abutilon theophrasti, ABUTH), cheat (Bromus secalinus, BROSE), wild oat (Avena fatua, AVEFA), radish (Raphanus sativus, RAPSN), corn poppy (Papaver rhoeas, PAPRH), yellow foxtail (Setaria pumila, SETLU), Italian ryegrass (Lolium perenne ssp. multiflorum, LOLMU). The tested crop was Oilseed rape.
This greenhouse study was conducted to assess the preemergence (PRE) weed control and oilseed rape tolerance with 2,4 DC (CS 36.7%) and dimethenamid-P (Outlook®, 63.9%) tank-mix combinations.
Metazachlor (Butisan, 43.1%) plus dimethenamid-P applied as tank mix at 500 g each was applied as commercial standard. Treatments were replicated 3 times and flats were watered after planting but before the treatment and then lightly watered after treatment application. Thereafter flats were watered and fertilized routinely.

barnyardgrass (BG) = assay: Ex5 PRE greenhouse, % control; format: in vivo, Echinochloa crus-galli; settings: 28 DAT, g ai/ha by row: r10-26 2,4-DC 50/100/200 (3 rows each) + mesotrione 25/50/100 (cycling)
Experimental: Test compositions containing 2,4-DC Example 1C and mesotrione (Callisto® Herbicide, 40% active ingredient, Syngenta) and mixtures of 2-(2,4-dichlorophenyl)methyl-4,4-dimethyl-3-isoxazolidinone and mesotrione, were diluted with water to provide the appropriate test rate concentration.
The test weeds were barnyardgrass (BG) (Echinochloa crus-galli), jimsonweed (PA) (Datura stramonium), velvetleaf (VL) (Abutilon theophrasti), common cockelbur (CC) (Xanthium strumarium) and hairy beggarticks (HB) (Bidens pilosa). Crops included in the evaluation were field corn and sorghum.
For pre-emergence testing, four disposable fiber flats (6″ by 10″) for each rate of application of each herbicide solution were filled with top soil, to which seeds of each species were planted in furrows made by a template pressed on the top of the soil. The furrows with seeds were covered with soil and were watered well before application of the test compounds. Flats designated for treatment were placed in a spray chamber having a static platform and a movable sprayer and height of the spray nozzle was 10.5 inches above the soil level. Once the sprayer was calibrated using water for spray volume of 30 gallons per acre, flats were sprayed with sprayer at a speed to receive a coverage equivalent of 30 gallons per acre.
The application rates are those shown in Table 4 below for the individual herbicidal solutions and the herbicide compositions of the present invention. The pre-emergence flats were immediately placed in the greenhouse and watered lightly after treatment. Thereafter they were regularly watered and fertilized for the duration of the test. The control of weeds and injury to crops was evaluated in each experimental test at 28 days after treatment (DAT). […] Percent control was determined by a method similar to the 0 to 100 rating system disclosed in “Research Methods in Weed Science,” 2nd ed., B. Truelove, Ed.; Southern Weed Science Society; Auburn University, Auburn, Ala., 1977.

weeds = assay: Ex21 PRE greenhouse; format: in vivo; settings: 28 DAT, weed and rate in the words
Source text: 2,4 DC (36.7% CS) was applied PRE at 0, 125, 170, 210, or 250 g ai/ha alone or as a tank-mix with S-metolachlor (Dual II Magnum®, 82.4%) at 0, 267, 534, 801, or 1070 g ai/ha. Pyroxasulfone plus fluthiacet-methyl (Anthem™, 23.3%) applied at 169.9 g ai/ha, and the tank-mix of mesotrione (Callisto®, 40%) at 123 g plus S-metolachlor (Dual II Magnum®, 82.4%) at 1252 g were included as standards for comparison. […] Thereafter flats were watered and fertilized routinely. Each treatment was replicated three times.

weeds; canola, and wheat = assay: Ex32 PRE greenhouse; format: in vivo; settings: rate in the words
Source text: Treatments were applied at the time of planting to Italian ryegrass, green foxtail, littleseed canarygrass, wild oat, quackgrass, dandelion, common chickweed, white clover, yellow nutsedge, redroot pigweed, field bindweed, canola, and wheat. […] Flats were watered and fertilized routinely after treatment application.

weeds; Wheat and Barley = assay: Ex36 POST greenhouse; format: in vivo; settings: rate in the words
Source text: Crops screened were wheat and barley.

[1] = tested on: weeds; corn, sweet corn, and sorghum; assay: Ex37 PRE greenhouse; format: in vivo; settings: weed and rate in the words
Source text: S-metolachlor (DUAL II MAGNUM®, 82.4%) at 525 g ai/h plus atrazine at 560 g ai/h was included as a standard for comparison. […] Thereafter flats were watered and fertilized routinely.

weeds; Wheat and canola = assay: Ex29 PRE greenhouse; format: in vivo; settings: 28 DAT, weed, crop, rate in the words
Source text: The tested weeds include Italian ryegrass (Lolium perenne. multiflorum, LOLMU), wild mustard (Sinapis arvensis, SINAR), annual bluegrass (Poa annua, POAAN), wild oat (Avena fatua, AVEFA), blackgrass (Alopecurus myosuroides, ALOMY), common lambsquarters (Chenopodium album, CHEAL), littleseed canarygrass (Phalaris minor, PHAMI), common chickweed (Stellaria media, STEME), corn poppy (Papaver rhoeas, PAPRH), redroot pigweed (Amaranthus retroflexus, AMARE), silky windgrass (Apera spica-venti, APSEV), wild buckwheat (Polygonum convolvulus, POLCO). The crops teased were Wheat and canola.
Treatments were applied before the emergence of Italian ryegrass, wild oat, wild buckwheat, blackgrass, littleseed canarygrass, common chickweed, common lambsquarters, corn poppy, silky windgrass, redroot pigweed, wild mustard, annual bluegrass, canola, and wheat. […] Flats were watered and fertilized routinely after treatment application.

Yellow nutsedge = assay: Ex39 PRE 2,4-DC + pyroxasulfone + carfentrazone, % control 28 DAT, Colby

## CC1(C)CON(Cc2ccc(Cl)cc2Cl)C1=O [2,4-DC, 2-(2,4-dichlorophenyl)methyl-4,4-dimethyl-3-isoxazolidinone]
weeds; Sugarcane (CTC20)
  weed control in words: applied alone at ≥500 g ai/ha controlled (≥85% injury) large crabgrass and redroot pigweed
Morningglory sp.; PRE, 2,4-DC 50 g ai/ha
  X (% control, 2,4-DC alone): 0%
Morningglory sp.; PRE, 2,4-DC 100 g ai/ha
  X (% control, 2,4-DC alone): 2%
Morningglory sp.; PRE, 2,4-DC 200 g ai/ha
  X (% control, 2,4-DC alone): 2%
Wild oat; 2,4-DC alone 125 g ai/ha
  X: 9%
Wild oat; 2,4-DC alone 170 g ai/ha
  X: 27%
Wild oat; 2,4-DC alone 210 g ai/ha
  X: 27%
Wild oat; 2,4-DC alone 250 g ai/ha
  X: 29%
Barnyardgrass (BG); r28-30 2,4-DC 50/100/200, r31-33 mesotrione 25/50/100, 50 g ai/ha
  % Control BG: 97%
Barnyardgrass (BG); r28-30 2,4-DC 50/100/200, r31-33 mesotrione 25/50/100, 100 g ai/ha
  % Control BG: 99%
weeds
  weed control in words: applied alone controlled (≥85% injury) common chickweed at all rates, bamyardgrass at ≥210 g ai/ha, and green foxtail at 250 g
weeds; canola, and wheat
  weed control / crop safety in words: alone controlled Italian ryegrass and wild oat at 400 g; common chickweed was controlled at all rates; green foxtail was controlled at ≥100 g; littleseed canarygrass and redroot pigweed were controlled at 200 g
weeds; Wheat and Barley
  weed control / crop safety in words: alone applied to barley was safe at 50 g ai/ha
[1]
  weed control in words: applied alone at ≥50 g ai/ha controlled barnyardgrass 28 DAT; also recorded: applied alone at ≥200 g controlled velvetleaf and redroot pigweed
weeds; Wheat and canola
  weed control / crop safety in words: alone gave control of pigweed and Italian ryegrass at ≥200 g ai/ha, corn poppy and wild oat at 400 g, blackgrass at ≥100 g, and common chickweed at all rates
Yellow nutsedge; PRE, 2,4-DC 50 g ai/ha
  X (% control, 2,4-DC alone): 1%
Yellow nutsedge; PRE, 2,4-DC 100 g ai/ha
  X (% control, 2,4-DC alone): 3%
Yellow nutsedge; PRE, 2,4-DC 200 g ai/ha
  X (% control, 2,4-DC alone): 3%
